{"source": "patent US9913850B2", "about": "“Bile acids and biguanides as protease inhibitors for preserving the integrity of peptides in the gut” (AXCESS LIMITED, priority 2008, dated 2018)", "key": {"chymotrypsin": {"biological_target": "T1, chymotrypsin (Bos taurus, UniProt P00766)", "T1 construct": "Chymotrypsin, from bovine plasma; from tissue", "assay": "Chymotrypsin inhibition, fluorogenic peptide substrates", "format": "biochemical, bovine", "description": "(§1) The following Examples serve to illustrate the present invention, and should not be construed as limiting.\n(§2) Trypsin, from bovine pancreas, was dissolved in Hanks Balanced Salt Solution (HBSS) at a concentration of 0.02 mg/ml. The substrate Z-L-arginine 4-methyl-7coumarinylamide was dissolved in HBSS at a concentration of 0.01 mg/ml, and sodium chenodeoxycholate was dissolved at a range of concentrations starting at 100 mg/ml. The assay was conducted in the wells of 96-well black plastic microplates, in which 20:1 of enzyme solution and 60:1 of bile salt were mixed together, and then 20:1 of substrate was added, with mixing, at the start of the reaction, which proceeded at room temperature for up to 30 minutes, with measurement at various intermediate time points.\nExample 1 was repeated but with chymotrypsin as the protease (instead of trypsin) and with glutaryl-L-phenylalanine 4-methyl-7-coumarinylamide as the substrate.\nExample 2 was repeated but with sodium deoxycholate instead of sodium chenodeoxycholate.\n(§3) Chymotrypsin, from bovine plasma, was dissolved in HBSS at a concentration of 0.02 mg/ml. The substrate Boc-β-benzyl-Asp-Pro-Arg-7-amido-4-methylcoumarin was dissolved in HBSS at a concentration of 0.01 mg/ml, and sodium chenodeoxycholate was dissolved at 100 mg/ml. The assay was conducted in the wells of 96-well clear plastic microplates, in which 20:1 of enzyme solution and 60:1 of bile salt were mixed together, and then 20:1 of substrate was added, with mixing, at the start of the reaction, which proceeded at 37° C. for up to 30 minutes, with measurement at various intermediate time points."}, "Thrombin": {"biological_target": "T2, Thrombin (Bos taurus, UniProt P00735)", "T2 construct": "Thrombin, from bovine plasma; from tissue; host or cells: bovine plasma", "assay": "Thrombin inhibition, chromogenic substrate N-Benzoyl-Phe-Val-Arg-p-nitroanilide", "format": "biochemical", "settings": "Examples 10, 11; thrombin from bovine plasma; bile salt from 100 mg/ml; 37° C., up to 30 minutes; FIGS. 13, 14", "description": "Thrombin, from bovine plasma, was dissolved in HBSS at a concentration of 0.5 mg/ml. The substrate N-Benzoyl-Phe-Val-Arg-p-nitroanilide hydrochloride was dissolved in HBSS at a concentration of 0.5 mg/ml, and sodium chenodeoxycholate was dissolved at a range of concentrations starting at 100 mg/ml. The assay was conducted in the wells of 96-well clear plastic microplates, in which 50:1 of enzyme solution and 100:1 of bile salt were mixed together, and then 50:1 of substrate was added, with mixing, at the start of the reaction, which proceeded at 37° C. for up to 30 minutes, with measurement at various intermediate time points. The progress of the enzymatic reaction was assessed by measuring the appearance of reaction product (p-nitroaniline) colorimetrically using a wavelength of 405 nm on an Anthos reader 2001 from Anthos Labtec Instruments.\nExample 10 was repeated but with sodium deoxycholate instead of sodium chenodeoxycholate."}, "Trypsin": {"biological_target": "T3, Trypsin (Bos taurus, UniProt P00760)", "T3 construct": "Trypsin, from bovine pancreas; from tissue; host or cells: bovine pancreas", "T3 sequence (P00760 24-246)": "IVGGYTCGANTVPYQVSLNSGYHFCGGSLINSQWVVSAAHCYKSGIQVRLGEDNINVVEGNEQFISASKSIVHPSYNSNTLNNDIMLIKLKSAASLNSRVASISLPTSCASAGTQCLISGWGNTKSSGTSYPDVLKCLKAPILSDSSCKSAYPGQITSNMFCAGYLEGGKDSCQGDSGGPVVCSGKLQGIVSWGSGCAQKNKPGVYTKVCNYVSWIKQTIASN", "assay": "Trypsin inhibition, fluorogenic substrate Z-L-arginine 4-methyl-7-coumarinylamide", "format": "biochemical, bovine", "settings": "up to 30 minutes", "description": "as §1, §2\nExample 1 was repeated but with sodium deoxycholate instead of sodium chenodeoxycholate.\nas §2, with “HBSS” for “Hanks Balanced Salt Solution (HBSS)”, “4-methyl-7-coumarinylamide” for “4-methyl-7coumarinylamide”, “ursodeoxycholate” for “chenodeoxycholate”, “50” for “100”, “100:1” for “60:1”, “37° C.” for “room temperature”\nas §2, with “HBSS” for “Hanks Balanced Salt Solution (HBSS)”, “4-methyl-7-coumarinylamide” for “4-methyl-7coumarinylamide”, “glycodeoxycholate” for “chenodeoxycholate”, “100:1” for “60:1”, “37° C.” for “room temperature”\nExample 5 was repeated but with sodium glycochenodeoxycholate instead of sodium ursodeoxycholate.\nExample 6 was repeated but with sodium glycocholate instead of sodium glycodeoxycholate.\nExample 9 was repeated but with trypsin (instead of chymotrypsin) from bovine plasma, Z-L-arginine 4-methyl-7-coumarinylamide as the substrate and metformin as the inhibitor.\nas §3, with “Trypsin,” for “Chymotrypsin,”, “pancreas,” for “plasma,”, “Z-L-arginine 4-methyl-7-coumarinylamide” for “Boc-β-benzyl-Asp-Pro-Arg-7-amido-4-methylcoumarin”, “phenformin” for “sodium chenodeoxycholate”, “black” for “clear”, “100:1” for “60:1”"}, "gut proteases": {"system": "gut proteases", "assay": "Inhibition of gut proteases, general statement", "format": "biochemical", "settings": "see FIGS. 5 and 6"}, "[1]": {"settings": "Example 4, substrate glutaryl-L-phenylalanine 4-methyl-7-coumarinylamide, bile salt 25 mg/ml, FIG. 6"}, "[2]": {"settings": "Example 3, bile salt 25 mg/ml, room temperature, FIG. 5"}, "[3]": {"settings": "Examples 5-8, 13, trypsin from bovine pancreas, 37° C., FIGS. 7-11, 16"}}, "data": [{"smiles": "C[C@H](CCC(=O)O)[C@H]1CC[C@H]2[C@@H]3[C@H](O)C[C@@H]4C[C@H](O)CC[C@]4(C)[C@H]3CC[C@]12C", "note": "[chenodeoxycholate, sodium chenodeoxycholate]", "values": [{"measurement": "Inhibition of chymotrypsin activity over time and dose response", "setting": "chymotrypsin; Example 2, substrate glutaryl-L-phenylalanine 4-methyl-7-coumarinylamide, bile salt from 100 mg/ml, FIGS. 3, 4", "result": "Inhibition of enzyme activity"}, {"measurement": "Inhibition of chymotrypsin activity over time", "setting": "chymotrypsin; Example 9, chymotrypsin from bovine plasma, substrate Boc-β-benzyl-Asp-Pro-Arg-7-amido-4-methylcoumarin, 100 mg/ml, 37° C., FIG. 12", "result": "Inhibition of enzyme activity"}, {"measurement": "Inhibition of thrombin activity over time", "setting": "Thrombin", "result": "Inhibition of enzyme activity"}, {"measurement": "Inhibition of trypsin activity over time and dose response", "setting": "Trypsin; Example 1, trypsin from bovine pancreas, bile salt from 100 mg/ml, room temperature, FIGS. 1, 2", "result": "Inhibition of enzyme activity"}]}, {"smiles": "C[C@H](CCC(=O)O)[C@H]1CC[C@H]2[C@@H]3[C@H](O)C[C@@H]4C[C@H](O)CC[C@]4(C)[C@H]3C[C@H](O)[C@]12C", "note": "[cholate, cholic acid]", "values": [{"measurement": "Inhibition of chymotrypsin activity over time", "setting": "chymotrypsin; [1]", "result": "do not inhibit chymotrypsin"}, {"measurement": "Inhibition of trypsin activity over time", "setting": "Trypsin; [2]", "result": "do not inhibit trypsin"}, {"measurement": "Inhibitory effect on gut proteases", "setting": "gut proteases", "result": "do not have this inhibitory effect"}]}, {"smiles": "C[C@H](CCC(=O)[O-])[C@H]1CC[C@H]2[C@@H]3CC[C@@H]4C[C@H](O)CC[C@]4(C)[C@H]3C[C@H](O)[C@]12C.[Na+]", "note": "[deoxycholate, sodium deoxycholate]", "values": [{"measurement": "Inhibition of chymotrypsin activity over time", "setting": "chymotrypsin; [1]", "result": "Inhibition of enzyme activity"}, {"measurement": "Inhibition of thrombin activity over time", "setting": "Thrombin", "result": "Inhibition of enzyme activity"}, {"measurement": "Inhibition of trypsin activity over time", "setting": "Trypsin; [2]", "result": "Inhibition of enzyme activity"}]}, {"smiles": "C[C@H](CCC(=O)NCC(=O)O)[C@H]1CC[C@H]2[C@@H]3[C@H](O)C[C@@H]4C[C@H](O)CC[C@]4(C)[C@H]3CC[C@]12C", "note": "[glycochenodeoxycholate, sodium glycochenodeoxycholate]", "values": [{"measurement": "Inhibition of trypsin activity over time", "setting": "Trypsin; [3]", "result": "Inhibition of enzyme activity"}]}, {"smiles": "C[C@H](CCC(=O)NCC(=O)O)[C@H]1CC[C@H]2[C@@H]3[C@H](O)C[C@@H]4C[C@H](O)CC[C@]4(C)[C@H]3C[C@H](O)[C@]12C", "note": "[glycocholate, sodium glycocholate]", "values": [{"measurement": "Inhibition of trypsin activity over time", "setting": "Trypsin; [3]", "result": "Inhibition of enzyme activity"}]}, {"smiles": "C[C@H](CCC(=O)NCC(=O)[O-])[C@H]1CC[C@H]2[C@@H]3CC[C@@H]4C[C@H](O)CC[C@]4(C)[C@H]3C[C@H](O)[C@]12C.[Na+]", "note": "[glycodeoxycholate, sodium glycodeoxycholate]", "values": [{"measurement": "Inhibition of trypsin activity over time", "setting": "Trypsin; [3]", "result": "Inhibition of enzyme activity"}]}, {"smiles": "CN(C)C(=N)N=C(N)N", "note": "[metformin]", "values": [{"measurement": "Inhibition of trypsin activity over time", "setting": "Trypsin; Example 12, trypsin from bovine plasma, 37° C., FIG. 15", "result": "Inhibition of enzyme activity"}]}, {"smiles": "[H]/N=C(/N)N/C(=N/[H])NCCc1ccccc1", "note": "[phenformin]", "values": [{"measurement": "Inhibition of trypsin activity over time", "setting": "Trypsin; [3]", "result": "Inhibition of enzyme activity"}]}, {"smiles": "C[C@H](CCC(=O)NCCS(=O)(=O)O)[C@H]1CC[C@H]2[C@@H]3[C@H](O)C[C@@H]4C[C@H](O)CC[C@]4(C)[C@H]3C[C@H](O)[C@]12C", "note": "[taurocholate, taurocholic acid]", "values": [{"measurement": "Inhibition of chymotrypsin activity over time", "setting": "chymotrypsin; [1]", "result": "do not inhibit chymotrypsin"}, {"measurement": "Inhibition of trypsin activity over time", "setting": "Trypsin; [2]", "result": "do not inhibit trypsin"}, {"measurement": "Inhibitory effect on gut proteases", "setting": "gut proteases", "result": "do not have this inhibitory effect"}]}, {"smiles": "C[C@H](CCC(=O)NCCS(=O)(=O)O)[C@H]1CC[C@H]2[C@@H]3CC[C@@H]4C[C@H](O)CC[C@]4(C)[C@H]3C[C@H](O)[C@]12C", "note": "[taurodeoxycholate, taurodeoxycholic acid]", "values": [{"measurement": "Inhibition of trypsin activity over time", "setting": "Trypsin; [2]", "result": "do not inhibit trypsin"}, {"measurement": "Inhibitory effect on gut proteases", "setting": "gut proteases", "result": "do not have this inhibitory effect"}]}, {"smiles": "C[C@H](CCC(=O)O)[C@H]1CC[C@H]2[C@@H]3[C@@H](O)C[C@@H]4C[C@H](O)CC[C@]4(C)[C@H]3CC[C@]12C", "note": "[ursodeoxycholate, sodium ursodeoxycholate]", "values": [{"measurement": "Inhibition of trypsin activity over time", "setting": "Trypsin; [3]", "result": "Inhibition of enzyme activity"}]}]}
